Assay results: BindingDB's records for doi:10.1016/j.bmcl.2005.07.021 (Johnson & Johnson Pharmaceutical Research and Development, 2005)

Target: Glycogen phosphorylase, muscle form (Oryctolagus cuniculus) (UniProt P00489)
Experiment: Inhibitory concentration against glycogen phosphorylase of rabbit muscle

Chain of Glycogen phosphorylase, muscle form (Oryctolagus cuniculus) (P00489 whole entry, looked up): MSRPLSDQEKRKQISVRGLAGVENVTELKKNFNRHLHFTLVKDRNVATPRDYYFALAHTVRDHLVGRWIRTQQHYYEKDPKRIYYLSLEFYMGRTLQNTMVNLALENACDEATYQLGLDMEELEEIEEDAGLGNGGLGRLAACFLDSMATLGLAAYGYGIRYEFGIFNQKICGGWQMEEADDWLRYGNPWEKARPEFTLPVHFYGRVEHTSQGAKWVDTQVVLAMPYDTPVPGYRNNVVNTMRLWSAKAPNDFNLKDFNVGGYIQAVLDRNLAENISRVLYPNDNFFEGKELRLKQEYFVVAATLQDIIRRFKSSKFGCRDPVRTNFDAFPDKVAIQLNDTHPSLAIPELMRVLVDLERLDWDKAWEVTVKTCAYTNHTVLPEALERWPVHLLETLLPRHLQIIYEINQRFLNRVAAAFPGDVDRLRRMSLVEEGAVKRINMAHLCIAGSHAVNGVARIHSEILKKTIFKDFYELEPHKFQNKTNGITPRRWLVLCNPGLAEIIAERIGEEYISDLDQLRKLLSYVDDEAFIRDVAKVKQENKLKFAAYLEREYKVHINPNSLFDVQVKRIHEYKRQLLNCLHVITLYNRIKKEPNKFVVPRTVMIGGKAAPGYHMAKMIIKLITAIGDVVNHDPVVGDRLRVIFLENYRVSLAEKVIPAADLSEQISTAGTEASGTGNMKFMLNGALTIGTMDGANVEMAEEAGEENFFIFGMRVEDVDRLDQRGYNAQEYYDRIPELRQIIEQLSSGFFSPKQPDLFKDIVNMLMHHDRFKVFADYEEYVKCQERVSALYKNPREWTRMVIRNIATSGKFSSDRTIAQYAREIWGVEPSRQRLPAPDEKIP

Row | IC50 [nM] | SMILES
1 | > 10000 | CN(c1ccc(C(=O)Nc2ccon2)cc1)c1nc2ccccc2n(C)c1=O
2 | 2500 | Cn1c(=O)c(Nc2ccc(-c3ccc[nH]3)cc2)nc2ccccc21 [1-Methyl-3-[4-(1H-pyrrol-2-yl)-phenylamino]-1H-quinoxalin-2-one]
3 | > 10000 | Cn1c(=O)c(Nc2ccc(NC(=O)c3ccc[nH]3)cc2)nc2ccccc21 [1H-Pyrrole-2-carboxylic acid [4-(4-methyl-3-oxo-3,4-dihydro-quinoxalin-2-ylamino)-phenyl]-amide]
4 | 5000 | Cn1c(=O)c(Nc2ccc(-c3ccoc3)cc2)nc2ccccc21 [3-(4-Furan-3-yl-phenylamino)-1-methyl-1H-quinoxalin-2-one]
5 | 2500 | O=c1[nH]c2ccccc2nc1Nc1ccccc1 [3-Phenylamino-1H-quinoxalin-2-one]
6 | > 10000 | CC(C)n1c(=O)c(Nc2ccc(C(=O)NCc3cccs3)cc2)nc2ccccc21 [4-(4-Isopropyl-3-oxo-3,4-dihydro-quinoxalin-2-ylamino)-N-thiophen-2-ylmethyl-benzamide]
7 | > 10000 | Cn1c(=O)c(Nc2ccc(C(=O)NCCc3cccs3)cc2)nc2ccccc21 [4-(4-Methyl-3-oxo-3,4-dihydro-quinoxalin-2-ylamino)-N-(2-thiophen-2-yl-ethyl)-benzamide]
8 | 710 | CN(C)CCn1c(=O)c(Nc2ccc(C(=O)NCc3cccs3)cc2)nc2ccccc21 [4-[4-(2-Dimethylamino-ethyl)-3-oxo-3,4-dihydro-quinoxalin-2-ylamino]-N-thiophen-2-ylmethyl-benzamide]
9 | 320 | O=C(NCc1cccs1)c1ccc(Nc2nc3ccccc3n(CCO)c2=O)cc1 [4-[4-(2-Hydroxy-ethyl)-3-oxo-3,4-dihydro-quinoxalin-2-ylamino]-N-thiophen-2-ylmethyl-benzamide]
10 | 5700 | O=C(O)Cn1c(=O)c(Nc2ccc(C(=O)NCc3cccs3)cc2)nc2ccccc21 [(2-Oxo-3-{4-[(thiophen-2-ylmethyl)-carbamoyl]-phenylamino}-2H-quinoxalin-1-yl)-acetic acid]
11 | 2500 | Cn1c(=O)c(Nc2ccc(NC(=O)c3ccco3)cc2)nc2ccccc21 [Furan-2-carboxylic acid [4-(4-methyl-3-oxo-3,4-dihydro-quinoxalin-2-ylamino)-phenyl]-amide]
12 | > 10000 | Cn1c(=O)c(Nc2cccc(NC(=O)c3ccno3)c2)nc2ccccc21 [Isoxazole-5-carboxylic acid [3-(4-methyl-3-oxo-3,4-dihydro-quinoxalin-2-ylamino)-phenyl]-amide]
